Laboratory results published in patent publication US12371676B2, “Circularly permutated haloalkane transferase fusion molecules” (MAX-PLANCK-GESELLSCHAFT ZUR FÖRDERUNG DER WISSENSCHAFTEN E. …, priority 2019, dated 2025).

Key:
[1] = FP kinetic assay of calcium integrators (split integrator, CaProLa); type: biochemical; conditions: in combination with the calmodulin/M13 sensor system; versus PEP1
Procedure: FIG. 6 M13—cpHaloΔ9mer and 9mer—CaM linker length optimization: All combinations of split integrators composed of M13—(GGS)1-3—cpHaloΔ9mer and 9mer—(GGS)1-3—CaM were tested in an FP kinetic assay in the presence of calcium or EGTA.
FIG. 8 Performance of CaProLa constructs with different M13—CaM linkers: FP kinetics of different CaProLa constructs and the split integrator under four conditions: in the presence of calcium (red), in the absence of calcium (purple), in the absence of calcium but spiked with calcium after 1 h (cyan), in the presence of calcium, followed by an EGTA spike to stop the reaction, followed by a calcium spike to restart the reaction (green). Small arrows indicate the EGTA and calcium spikes. Curves in the presence of calcium (red) were fitted to a second order reaction rate equation to determine the rate constants. All experiments were performed in triplicates. GGTGGS: SEQ ID NO 027.
FIG. 11 Performance of second generation CaProLa constructs: A fluorescence polarization kinetic assays with Halo-TMR of CaProLa 2.1-2.3 were performed under four conditions: in the presence of calcium (red), in the absence of calcium (purple), in the absence of calcium but spiked with calcium after 1 h (cyan), in the presence of calcium, followed by an EGTA spike to stop the reaction, followed by a calcium spike (green). Small arrows indicate the EGTA and calcium spikes. […]

[2] = FKBP/FRB model system, FP labelling kinetics with or without rapamycin; type: biochemical; conditions: in combination with a FKPB/FRB sensor system; versus PEP1
Procedure: FIG. 13 Model system to test split HaloTag™ performance: Left: Scheme explaining the FKBP/FRB based model system. cpHaloΔ and the 9mer peptide are fused to FKBP and FRB, respectively, to render the split complementation and activity dependent on their rapamycin dependent interaction. Right: Labelling kinetics of the model system were followed via a fluorescence polarization assay in the presence or absence of rapamycin (Rap). Halo-TMR was used as substrate and each experiment was performed in triplicate.
FIG. 14 Impact of different flexible linkers in the FKBP/FRB model system: Labelling kinetics of split HaloTag™ fused to FKBP and FRB using different flexible linkers were observed via a fluorescence polarization assay in the presence or absence of rapamycin. Halo-TMR was used as substrate and each experiment was performed in triplicate.
The inventors further tested the performance of the split-HaloTag system of the invention for labelling protein-protein interactions in a simple model system. They used the strong interaction of the proteins FKBP and FRB, which is conditional on the presence of the small-molecule drug rapamycin. […] Different flexible linkers (1-3 times GGS) were placed between the interacting proteins (FKBP/FRP) and the split HaloTag™ fragments to assess the effect of linker length and to find well performing linker combinations (FIG. 14). […]

PEP2: 10mer Peptide 145-ARETFQAFRT-154, second partial effector sequence with extra C-terminal threonine (partial sensor sequence)
effect of the extra threonine on reaction speed [1]: significant increase in the reaction speed
effect of the extra threonine on reaction speed [2]: does not have much effect
